Data reported in article PMC12452389, “Arginine-Derived Cationic Surfactants Containing Phenylalanine and Tryptophan: Evaluation of Antifungal Activity, Biofilm Eradication, Cytotoxicity, and Ecotoxicity” (Journal of Xenobiotics, 2025).
Values after ≈ are worked out from the molar mass of the structure shown. Where two headings read alike, the source gives them in different places. Peptide text beside a SMILES is read from it. * marks the point of attachment. Lauroyl = CCCCCCCCCCCC(=O)*

Key:
[1] = Surface tension, pendant drop tensiometer (cmc, γc); assay type: physicochemical; details: for cmc: from surface tension
Experimental: Surface tension was measured using a custom-built pendant drop tensiometer, as described in detail in reference. Briefly, a droplet of surfactant solution is formed at the tip of a straight-cut Teflon tube. The image of the droplet is captured using a webcam, and its shape is analyzed by fitting the droplet profile to the Laplace–Young equation [14], To minimize evaporation, all measurements were conducted in a saturated humid atmosphere. The use of this technique is especially well-suited for cationic surfactants because it helps to mitigate complications related to surface adsorption. Critical micelle concentration values (cmc) were determined by finding the intersection of the linear fits before and after the break in the curves.

[2] = parameters: method as in PMID 36559096; details: conductivity values; cited from earlier work
C. albicans biofilms = experiment: Eradication of mature biofilm, MTT method; assay type: cell-based, Candida albicans; details: highest concentration tested
Experimental: Candida strains were cultured in SBA at 30 °C for 24 h. Yeast cells were then suspended in RPMI 1640 broth to a final concentration of 1.5 × 10^7 CFU/mL. For mature biofilm formation, 200 μL of these suspensions was transferred to each well of a 48-well microplate and incubated at 30 °C for 24 h. After incubation, the plate was washed with phosphate-buffered saline (PBS) to remove non-adherent cells. Then, surfactant solutions at various concentrations (200 μL), prepared in RPMI 1640, were added to the wells containing the mature biofilms. Plates were incubated again at 30 °C for 24 h. Following this treatment, the RPMI medium was removed, and wells were washed twice with PBS. To assess biofilm viability, 200 μL of MTT solution (3-(4,5-dimethylthiazol-2-yl)-2,5-diphenyltetrazolium bromide) were added to each well, and plates were incubated for 4 h. After incubation, the MTT solution was removed, and 200 μL of dimethyl sulfoxide (DMSO) were added to solubilize the formazan crystals. Absorbance at 540 nm (A540) was then measured using a microplate reader. Controls without the amino acid-based surfactants were included. All experiments were made in quadruplicate, and the results were averaged to ensure accuracy and reproducibility.
In this section, we have tested the ability of these cationic surfactants to eradicate mature fungal biofilms of C. albicans and C. tropicalis. Preformed biofilms of these two strains on 48-well plates were exposed to various concentrations of the synthesized surfactants, and the biofilm was not removed after the treatment was quantified using the MTT method (3-[4,5-dimethylthiazol-2-yl]-2,5 diphenyl tetrazolium bromide) (Figure 4). This method detects viable and metabolically active cells within the biofilm by measuring the reduction in MTT to formazan by active mitochondrial enzymes.

[3] = test system: Cyberlindnera jadinii ATCC 60459 (C. jardinii); experiment: MIC broth microdilution; assay type: cell-based; details: for Selectivity Index (HC50/MIC): C. jardini; for MIC: Williopsis jadinii
Experimental: (§1) The antimicrobial activity of these compounds was assessed against selected yeast and bacterial strains: Candida albicans ATCC 90028 (CA9), Candida rugosa ATCC 10571 (CR), Candida glabrata ATCC 66032 (CG), Candida parapsilosis ATCC 22019 (CP), Candida tropicalis ATCC 7349 (CT), Candida auris ATCC 21092 (CA), and Cyberlindnera jadinii ATCC 60459. Frozen yeast stocks were plated on Sabouraud agar (SBA) and incubated at 30 °C for 24 h. Three to four colonies from each strain were then suspended in RPMI 1640 (Roswell Park Memorial Institute medium, Sigma- Aldrich, Merck, Darmstadt, Germany) to prepare bacterial dispersions of ~1.5 × 10^6 CFU/mL.
(§2) A broth microdilution assay was used to calculate MIC values. Twofold serially diluted compounds in RPMI 1640 medium (from 256 to 2 μg/mL), were dispensed (100 μL per well) into a 96-well plate. Then, 100 μL of a yeast starter culture was added to each well to reach a final inoculum of 7.5 × 10^5 CFU/mL. Wells containing only nutrient broth without the tested surfactant served as growth controls. Microbial growth was assessed by turbidity, which reflects increases in biomass and cell count. […] To confirm the obtained MICs, 20 μL of 0.015% (w/v) resazurin was dispensed to each well and incubated for 3 h at 30 °C. Metabolic activity was evidenced by a color change from blue to pink, thereby confirming the MIC value.

[4] = test system: Candida tropicalis ATCC 7349; experiment: MIC broth microdilution; assay type: cell-based; details: C. tropicalis; for MIC: Candida tropicalis, ATCC7349, read-out: MIC
Experimental: as §1, §2

[5] = test system: Candida parapsilosis ATCC 22019; experiment: MIC broth microdilution; assay type: cell-based; details: C. parapsilosis; for MIC: Lodderomyces parapsilosis, ATCC22019, read-out: MIC
Experimental: as §1, §2

[6] = test system: Candida rugosa ATCC 10571; experiment: MIC broth microdilution; assay type: cell-based; details: C. rugosa; for MIC: Diutina rugosa, ATCC10571, read-out: MIC
Experimental: as §1, §2

Candida auris ATCC 21092 = experiment: MIC broth microdilution; assay type: cell-based; details: C. auris; for MIC: Candidozyma auris, ATCC21092, read-out: MIC
Experimental: as §1, §2

[7] = test system: Candida glabrata ATCC 66032; experiment: MIC broth microdilution; assay type: cell-based; details: for MIC: Nakaseomyces glabratus, read-out: MIC
Experimental: as §1, §2

[8] = test system: Candida albicans ATCC 90028; experiment: MIC broth microdilution; assay type: cell-based; details: C. albicans; for MIC: Candida albicans, ATCC90028, read-out: MIC
Experimental: as §1, §2

[9] = parameters: method as in PMID 36559096; details: CO2 Headspace test, pass level 60%; cited from earlier work
erythrocytes = experiment: Hemolytic activity assay; assay type: cell-based; details: rabbit erythrocytes
Experimental: Fresh rabbit blood was obtained from the Animal Facility of the CID-CSIC (Research and Development Center, Spanish National Research Council, Barcelona, Spain). Sample collection was conducted in strict compliance with the bioethical guidelines established under Spanish legislation. Erythrocytes were isolated by centrifugation (3000 rpm/10 min). The supernatant was discarded, and the erythrocytes were washed three times with PBS (phosphate-buffered saline, pH 7.4) and then resuspended in PBS at a concentration of 8 × 10^9 cells/mL. Subsequently, varying volumes of a concentrated surfactant solution were added to Eppendorf tubes containing 25 μL of erythrocyte suspension. PBS was then added to bring the total volume to 1 mL. The samples were gently shaken for 10 min at room temperature and centrifuged at 10,000 rpm for 5 min. Hemolysis was evaluated by measuring the absorbance of the supernatant at 540 nm and comparing it to that of a 100% hemolysis control (erythrocytes treated with distilled water). The HC50, defined as the surfactant concentration that induces 50% hemolysis, was determined from the concentration–response curves: % hemolysis= Abstest compound/AbsBasal haemolytic activity ×100

Daphnia magna = experiment: Acute toxicity, immobilization test; assay type: in vivo
Experimental: Aquatic toxicity evaluation was performed using Daphnia magna following established protocols. This bioassay method employs laboratory-cultured freshwater microcrustaceans to evaluate surfactant toxicity in aquatic environments. Test organisms were utilized during their initial 24 h life stage to ensure consistency. The endpoint measurement focused on mobility impairment, specifically the loss of swimming capability after gentle stimulation lasting 15 s. Testing conditions included controlled water chemistry parameters: pH maintained at 8.0, calcium-to-magnesium ratio of 4:1, and total hardness of 250 mg/L as CaCO3. All experiments were conducted under dark conditions at 20 °C. The experimental design incorporated ten test concentrations for each surfactant compound, distributed in geometric progression. Each concentration level included 20 Daphnia specimens distributed across four replicate groups of five organisms each. Mobility assessment occurred at 48 h post-exposure, with immobilization percentages plotted against concentration using probability–logarithmic scaling.

Vibrio fischeri = experiment: Luminescence reduction test; assay type: cell-based; details: Aliivibrio fischeri, 0.25 h; Vibrio fischeri bioluminescence, 15 min of exposure; 95% confidence intervals in parentheses
Experimental: Ecotoxicological assessment of cationic surfactants was conducted using the Vibrio fischeri luminescent bioassay. This method relies on the measurement of decreased bioluminescent output from marine bacteria following contact with potentially toxic substances. Regression analysis was used to determine the concentration of the compound that caused a 50% reduction (EC50) in the amount of light emitted by the bacteria. The stated toxicity statistics given are based on the bacteria being exposed to the ionic liquid solution for 15 min at 15 °C.

[10] = ATCC66032, 24 h, C. glabrata, RPMI 1640, 24 h, 30 °C
[11] = ATCC66032, C. glabrata, value in parentheses
[12] = ATCC60459, C. jardinii, RPMI 1640, 24 h, 30 °C, read-out: MIC
[13] = ATCC60459, C. jardinii, value in parentheses, read-out: MIC

Row | Compound | γc (surface tension at the cmc) [1] [mNm^−1] | cmc [1] [mM] | cmc Cond [2] [mM] | MIC ([4]; RPMI 1640, 24 h, 30 °C) [µg/mL] | MIC ([4]; value in parentheses) [µM] | MIC ([5]; RPMI 1640, 24 h, 30 °C) [µg/mL] | MIC ([5]; value in parentheses) [µM] | MIC ([6]; RPMI 1640, 24 h, 30 °C) [µg/mL] | MIC ([6]; value in parentheses) [µM] | MIC (Candida auris ATCC 21092; RPMI 1640, 24 h, 30 °C) [µg/mL] | MIC (Candida auris ATCC 21092; value in parentheses) [µM] | MIC [7, 10] [µg/mL] | MIC [7, 11] [µM] | MIC ([8]; RPMI 1640, 24 h, 30 °C) [µg/mL] | MIC ([8]; value in parentheses) [µM] | HC50 (erythrocytes; 10 min, room temperature) [µg/mL] | HC50 (erythrocytes; value in parentheses) [µM] | MIC [3, 12] [µg/mL] | MIC [3, 13] [µM] | other results
1 | CCCCCCCCCCCC(=O)NC(Cc1c[nH]c2ccccc12)C(=O)NC(CCCNC(=N)N)C(=O)OC (stereo not drawn) [C12TAM] (Lauroyl-Trp-Arg-OMe; configuration not given here) | 32.1 ± 2.3 | 0.65 | 0.5 | 16 | 27 | 16 | 27 | 8 | 13 | 16 | 27 | 16 | 27 | 32 | 54 | 24 ± 0.8 | 40 ± 1.6 |  |  | reduction of the metabolic activity of the biofilm (C. albicans biofilms): less than 65%; Selectivity Index (HC50/MIC) ([3]; Table S1): 0.7; MIC ([3]; ATCC60459): 54 µM; MIC ([3]; ATCC60459, 24 h): 32 µg/mL; Selectivity Index (HC50/MIC) ([4]; Table S1): 1.4; Selectivity Index (HC50/MIC) ([5]; Table S1): 1.4; Selectivity Index (HC50/MIC) ([6]; Table S1): 3; Selectivity Index (HC50/MIC) (Candida auris ATCC 21092; Table S1): 1.4; Selectivity Index (HC50/MIC) ([7]; C. glabrata, Table S1): 1.4; Selectivity Index (HC50/MIC) ([8]; Table S1): 0.7; biodegradation [9]: over 60%
2 | CCCCCCCCNC(=O)C(CCCNC(=N)N)NC(=O)C(N)Cc1ccccc1 (centres unmarked) [PANHC8] |  |  |  | 256 | 512 | 256 | 512 | > 256 | > 512 | > 256 | > 512 | 256 | 512 | > 256 | > 512 |  |  | > 256 | > 512 | 
3 | CCCCCCCCCCCCCCNC(=O)C(CCCNC(=N)N)NC(=O)C(N)Cc1c[nH]c2ccccc12 (centres unmarked) [TANHC14] | 32.8 ± 1.2 | 0.7 | 0.3 | 4 | 7 | 16 | 25 | 4 | 7 | 16 | 25 | 8 | 14 | 16 | 25 | 16 ± 0.18 | 26 ± 0.3 | 8 | 14 | EC50 (Daphnia magna; Daphnia magna, 48 h): 0.85 µg/mL (≈ 1.53 µM); Selectivity Index (HC50/MIC) ([3]; Table S2): 1.9; Selectivity Index (HC50/MIC) ([4]; Table S2): 3.7; Selectivity Index (HC50/MIC) ([5]; Table S2): 1.1; Selectivity Index (HC50/MIC) ([6]; Table S2): 3.7; Selectivity Index (HC50/MIC) (Candida auris ATCC 21092; Table S2): 1.1; Selectivity Index (HC50/MIC) ([7]; C. glabrata, Table S2): 1.9; Selectivity Index (HC50/MIC) ([8]; Table S2): 1.1; EC50 (Vibrio fischeri): 2.6 µg/mL (≈ 4.68 µM)
4 | dodecyl dimethyl ammonium bromide [DDAB, reference compound] |  |  |  |  |  |  |  |  |  |  |  |  |  |  |  |  |  |  |  | EC50 (Daphnia magna; Daphnia magna immobilization, 48 h of exposure, 95% confidence intervals in parentheses): 0.15 (0.14–0.17) μg/mL
